Experimental findings from ChEMBL document CHEMBL1150867, “New sesquiterpene hydroquinones from a Taiwanese marine sponge, Hippospongia metachromia” (J Nat Prod, 2001) are described below.

Values after ≈ are worked out from the molar mass of the structure shown. Where only a bound is given, the exact number is not on record here.

A short description of assay [1]: Cytotoxicity against human KB16 cells by methylene blue dye assay.
The next assay deals with COLO 205. Nature of the assay: Cytotoxicity against human COLO205 cells by methylene blue dye assay.

A word on the IC50: it is the concentration at which inhibition is half-maximal. Lower therefore signals greater potency.

On to `C=C1[C@H](C)CCC[C@]1(C)CC[C@@]1(C)C=Cc2c(OC(C)=O)c(OC(C)=O)cc(OC)c2O1` [HIPPOCHROMIN A DIACETATE], for which the values for the IC50 (in assay [1]; in the assay on COLO 205) were 3.06 µg/mL and 0.22 µg/mL, respectively.

As for `C=C1[C@H](C)CCC[C@]1(C)CC[C@@]1(C)C=Cc2c(OC(C)=O)c(OC)cc(OC(C)=O)c2O1` [HIPPOCHROMIN B DIACETATE], the IC50 (in assay [1]; in the assay on COLO 205) was greater than 10 µg/mL each time.

As for `C=C1[C@H](C)CCC[C@]1(C)CC/C(C)=C/CC1=C(OC)C(=O)C=C(OC)C1=O` [METACHROMIN A MONOMETHYLATE], the IC50 (in assay [1]; in the assay on COLO 205) was greater than 10 µg/mL each time.

For `C=C1[C@H](C)CCC[C@]1(C)CC/C(C)=C/CC1=C(O)C(=O)C=C(OC)C1=O` [METACHROMIN A], the figures for the concentration for half-maximal inhibition (IC50) (in assay [1]; in the assay with COLO 205) were 1.8 µg/mL (≈ 5.02 µM) and 0.1 µg/mL (≈ 0.279 µM), respectively.

Regarding `C=C1[C@H](C)CCC[C@]1(C)CC[C@@]1(C)C=Cc2c(OC(C)=O)c(OC)cc(OC)c2O1` [METACHROMIN B MONO METHYLATE], the figures for the IC50 (in assay [1]; in the assay with COLO 205) were 1.32 µg/mL (≈ 3.18 µM) and 0.53 µg/mL (≈ 1.28 µM), respectively.

On to `C=C1[C@H](C)CCC[C@]1(C)CC[C@@]1(C)C=Cc2c(O)c(OC)cc(OC)c2O1` [METACHROMIN B], for which the values for the IC50 (in assay [1]; with COLO 205) were 0.68 µg/mL (≈ 1.83 µM) and 0.26 µg/mL (≈ 0.698 µM), respectively.

In the case of `C=C1[C@H](C)CCC[C@]1(C)CC[C@@]1(C)C=CC2=C(O1)C(=O)C=C(OC)C2=O` [METACHROMIN E], the IC50 (in assay [1]; in the assay with COLO 205) was greater than 10 µg/mL in each case.
